Converted amounts (≈) assume the structure as drawn. Read-outs that look alike come from different tables or passages of the source.
How the values were obtained:
Assay in all cases: Minimum Inhibitory Concentration (MIC), agar dilution, standard strains
E. faecalis EFS004 = assay type: cell-based; details: Enterococcus faecalis, EFS004; Table 2; Mueller-Hinton agar, 37° C., 20 hours; read-out: Minimum Inhibitory Concentration, E. faecalis EFS004
Procedure: (§1) The effectiveness of the compound according to the present invention was determined by obtaining Minimum Inhibitory Concentration (MIC) of the compounds prepared by the above examples (Compounds I-1 to I-41) and vancomycin, which is the known compound having a potent activity against gram-positive strains, as the control drug against the standard strains. Specifically, Minimum Inhibitory Concentration was obtained by diluting the test compound according to a double dilution method, dispersing them in Mueller-Hinton agar medium, inoculating each of the test strain having 10^7 cfu (colony forming unit) per ml in an amount of 2 μl to the medium and then incubating them at 37° C. for 20 hours. From the result of Minimum Inhibitory Concentration test, it can be seen that the compound according to the present invention has a good activity against major pathogenic microorganisms, which cause hospital infection, including MRSA strains.

S. epidermidis R005 = assay type: cell-based; details: Mueller-Hinton agar, 37° C., 20 hours; for MIC: Staphylococcus epidermidis, R005, read-out: Minimum Inhibitory Concentration, S. epidermidis R005
Procedure: as §1

[1] = system: Staphylococcus aureus giorgio; assay type: cell-based; details: Mueller-Hinton agar, 37° C., 20 hours; for MIC: Staphylococcus aureus, read-out: Minimum Inhibitory Concentration, Staphylococcus aureus giorgio
Procedure: as §1

S. aureus 77 = assay type: cell-based, Staphylococcus aureus; details: Mueller-Hinton agar, 37° C., 20 hours; for MIC: Staphylococcus aureus, 77, read-out: Minimum Inhibitory Concentration, S. aureus 77
Procedure: as §1

S. aureus K311 = assay type: cell-based, Staphylococcus aureus; details: Staphylococcus aureus, K311; Table 2; Mueller-Hinton agar, 37° C., 20 hours; read-out: Minimum Inhibitory Concentration, S. aureus K311
Procedure: as §1

E. faecalis L239 = assay type: cell-based; details: Table 1, Mueller-Hinton agar, 37° C., 20 hours; for MIC: Enterococcus faecalis, L239, read-out: Minimum Inhibitory Concentration, E. faecalis L239
Procedure: as §1

S. aureus 241 = assay type: cell-based, Staphylococcus aureus; details: Table 1, Mueller-Hinton agar, 37° C., 20 hours; for MIC: Staphylococcus aureus, 241, read-out: Minimum Inhibitory Concentration, S. aureus 241
Procedure: as §1

Structure (SMILES)	Minimum Inhibitory Concentration, E. faecalis L239 (E. faecalis L239) [µg/mL]	Minimum Inhibitory Concentration, S. epidermidis R005 (S. epidermidis R005; Table 1) [µg/mL]	Minimum Inhibitory Concentration, Staphylococcus aureus giorgio ([1]; Table 1) [µg/mL]	Minimum Inhibitory Concentration, S. aureus 241 (S. aureus 241) [µg/mL]	Minimum Inhibitory Concentration, S. aureus 77 (S. aureus 77; Table 1) [µg/mL]	further results
O=C(CSc1cc(Cl)nc(Cl)c1)N[C@@H]1C(=O)N2C(C(=O)O)=C(/C=C/CSc3ncnc4[nH]ncc34)CS[C@H]12 [Compound I-7, (6R,7R)-7-({2-[(2,6-dichloro-4-pyridinyl)sulfanyl]acetyl}amino)-8-oxo-3-[(E)-3-(1H-pyrazolo[3,4-d]pyrimidin-4-ylsulfanyl]-1-propenyl]-5-thia-1-azabicyclo[4.2.0]oct-2-ene-2-carboxylic acid]						MIC (E. faecalis EFS004): 0.5 µg/mL (≈ 0.819 µM); MIC (S. epidermidis R005; Table 2): 0.25 µg/mL (≈ 0.409 µM); MIC ([1]; Table 2): < 0.008 µg/mL; MIC (S. aureus 77; Table 2): 0.25 µg/mL (≈ 0.409 µM); MIC (S. aureus K311): 0.5 µg/mL (≈ 0.819 µM)
Cc1c(N)nc(SC/C=C/C2=C(C(=O)O)N3C(=O)[C@@H](NC(=O)CSc4cc(Cl)ccc4Cl)[C@H]3SC2)nc1N [Compound I-26, (6R,7R)-3-{(E)-3-[(4,6-diamino-5-methyl-2-pyrimidinyl)sulfanyl]-1-propenyl}-7-({2-[(2,5-dichlorophenyl)sulfanyl]acetyl}amino)-8-oxo-5-thia-1-azabicyclo[4.2.0]oct-2-ene-2-carboxylic acid]						MIC (E. faecalis L239): 2 µg/mL (≈ 3.26 µM); MIC (S. epidermidis R005; Table 1): 2 µg/mL (≈ 3.26 µM); MIC ([1]; Table 1): 0.13 µg/mL (≈ 0.212 µM); MIC (S. aureus 241): 16 µg/mL (≈ 26.1 µM); MIC (S. aureus 77; Table 1): 1 µg/mL (≈ 1.63 µM)
O=C(CSc1cc(Cl)ccc1Cl)N[C@@H]1C(=O)N2C(C(=O)O)=C(/C=C/CSc3ncnc4[nH]ncc34)CS[C@H]12 [Compound I-27]	0.13	0.13	<0.008	2	0.13	
CSc1nc(C)cc(SC/C=C/C2=C(C(=O)O)N3C(=O)[C@@H](NC(=O)CSc4cc(Cl)ccc4Cl)[C@H]3SC2)n1 [Compound I-28, (6R,7R)-7-({2-[(2,5-dichlorophenyl)sulfanyl]acetyl}amino)-3-((E)-3-{[6-methyl-2-(methylsulfanyl)-4-pyrimidinyl]sulfanyl}-1propenyl)-8-oxo-5-thia-1-azabicyclo [4.2.0]oct-2-ene-2-carboxylic acid]						MIC (E. faecalis L239): 0.5 µg/mL (≈ 0.794 µM); MIC (S. epidermidis R005; Table 1): 0.25 µg/mL (≈ 0.397 µM); MIC ([1]; Table 1): 0.016 µg/mL (≈ 0.0254 µM); MIC (S. aureus 241): 32 µg/mL (≈ 50.8 µM); MIC (S. aureus 77; Table 1): 0.25 µg/mL (≈ 0.397 µM)
CC[n+]1c(N)cc(N)nc1SC/C=C/C1=C(C(=O)O)N2C(=O)[C@@H](NC(=O)CSc3cc(Cl)ccc3Cl)[C@H]2SC1 [Compound I-29, (6R,7R)-4,6-diamino-2-({(E)-3-[2-carboxy-7-({2-[(2,5-dichlorophenyl)sulfanyl]acetyl}amino)-8-oxo-5-thia-1-azabicyclo[4.2.0]oct-2-en-3-yl]-2-propenyl}sulfanyl)-1-ethylpyrimidin-1-ium]	0.13	0.031	<0.008	1	0.063	
CNc1cc(N)nc(SC/C=C/C2=C(C(=O)O)N3C(=O)[C@@H](NC(=O)CSc4cc(Cl)ccc4Cl)[C@H]3SC2)n1 [Compound I-30, (6R,7R)-3-((E)-3-{[4-amino-6-(methylamino)-2-pyrimidinyl]sulfanyl}-1propenyl)-7-({2-[(2,5-dichlorophenyl)sulfanyl]acetyl}amino)-8-oxo-5-thia-1-azabicyclo [4.2.0]oct-2-ene-2-carboxylic acid]						MIC (E. faecalis L239): 2 µg/mL (≈ 3.26 µM); MIC (S. epidermidis R005; Table 1): 0.5 µg/mL (≈ 0.815 µM); MIC ([1]; Table 1): 0.016 µg/mL (≈ 0.0261 µM); MIC (S. aureus 241): 16 µg/mL (≈ 26.1 µM); MIC (S. aureus 77; Table 1): 0.5 µg/mL (≈ 0.815 µM)
Cc1c(N)nc[n+](C/C=C/C2=C(C(=O)O)N3C(=O)[C@@H](NC(=O)CSc4cc(Cl)ccc4Cl)[C@H]3SC2)c1N [Compound I-31]	2	0.25	0.016	8	1	
Nc1nc2cc(N)[n+](C/C=C/C3=C(C(=O)O)N4C(=O)[C@@H](NC(=O)CSc5cc(Cl)ccc5Cl)[C@H]4SC3)cn2n1 [Compound I-32]	1	0.25	0.016	4	0.5	
Cc1nc(N)cc[n+]1C/C=C/C1=C(C(=O)O)N2C(=O)[C@@H](NC(=O)CSc3cc(Cl)ccc3Cl)[C@H]2SC1 [Compound I-33]	0.5	0.063	<0.008	2	0.26	
Nc1nc[n+](C/C=C/C2=C(C(=O)O)N3C(=O)[C@@H](NC(=O)CSc4cc(Cl)ccc4Cl)[C@H]3SC2)c2c1CCC2 [Compound I-34]	1	0.13	<0.008	4	0.5	
Nc1nc[n+](C/C=C/C2=C(C(=O)O)N3C(=O)[C@@H](NC(=O)CSc4cc(Cl)ccc4Cl)[C@H]3SC2)c(N)c1N [Compound I-35]	0.5	0.25	0.016	2	0.25	
Nc1cc(N)[n+](C/C=C/C2=C(C(=O)O)N3C(=O)[C@@H](NC(=O)CSc4cc(Cl)ccc4Cl)[C@H]3SC2)cn1 [Compound I-36]	0.25	0.063	<0.008	1	0.13	
Cc1nc(N)cc(N(C)C)[n+]1C/C=C/C1=C(C(=O)O)N2C(=O)[C@@H](NC(=O)CSc3cc(Cl)ccc3Cl)[C@H]2SC1 [Compound I-37, 4-amino-1-{(E)-3-[(6R,7R)-2-carboxy-7-({2-[(2,5-dichlorophenyl)sulfanyl]acetyl}amino)-8-oxo-5-thia-1-azabicyclo[4.2.0]oct-2-en-3-yl]-2-propenyl}-6-(dimethylamino)-2-methylpyrimidin-1-ium]	0.5	0.25	0.016	4	0.25	
CNc1cc(N)nc(C)[n+]1C/C=C/C1=C(C(=O)O)N2C(=O)[C@@H](NC(=O)CSc3cc(Cl)ccc3Cl)[C@H]2SC1 [Compound I-38, 4-amino-1-{(E)-3-[(6R,7R)-2-carboxy-7-({2-[(2,5-dichlorophenyl)sulfanyl]acetyl}amino)-8-oxo-5-thia-1-azabicyclo[4.2.0]oct-2-en-3-yl]-2-propenyl}-2-methyl-6-(methylamino)pyrimidin-1-ium]	1	0.5	0.031	8	1	

— US20030162762A1, “Novel cephalosporin compounds and process for preparing the same” (priority 2000, published 2003)
